Reference: patent US5691348A, “Pyridyl imidazole derivatives and processes for the preparation thereof” (Daewoo Electronics Co., Ltd., priority 1994, dated 1997)

How the values were obtained:
[1] = test system: unanesthetized dogs; test: Maximum blood pressure lowering effect in unanesthetized dogs at different amounts; assay type: in vivo, dog
Description: (§1) A number of dog was fed freely in a feeding room and those weighing 7 to 12 kg in good health were selected regardless of their gender.
(§2) The test dog was anesthetized with 30 mg/kg of pentobarbital sodium by intravenous injection and the left femoral artery and femoral vein were separated carefully. Silicone catheter, specially prepared and filled with saline treated with heparin (1,000 IU/ml), was cannulated into the blood vessels. After the surgery, the dog was constrained to measure the blood pressure continuously with Gould 2000 physiograph adapted to a Grass P23XL pressure transducer; and the heart rate was monitored with ECG/Biotacho amplifier. The dog was tested at least 2 days after the surgery.
10 mg/kg of furosemide was injected intramuscularly 18 hours (in case of intravenous injection, 2 hours) before the beginning of the test (administration of the test compound) to improve the activity of renin in blood plasma. After the injection of furosemide, neither food nor water was provided. The test compound was suspended in Tween 80 and administered in an amount of 20 mg/kg orally. The blood pressure and heart rate were measured up to 8 hours after the administration of each test compound.
The maximum blood pressure lowering effect of the present compounds and the control compounds were determined in different amounts of administration using the same method as (i) and the results are given in Table 4.

[2] = test system: furosemide-administered dogs; test: Duration of action in furosemide-administered dogs; assay type: in vivo, dog; settings: 0.3 mg oral
Description: as §1, §2
(§3) 10 mg/kg of furosemide was injected intramuscularly 18 hours (in case of intravenous injection, 2 hours) before the beginning of the test (administration of the test compound) to improve the activity of renin in blood plasma. After the injection of furosemide, neither food nor water was provided. […] The blood pressure and heart rate were measured up to 8 hours after the administration of each test compound.
The compound of Example 1 and the Merck compound were administered orally to the furosemide-administrated dogs as in test 3(i), and blood pressure lowering effect was measured with time.

[3] = test system: renal hypertensive rats; test: Duration of action in renal hypertensive rats; assay type: in vivo, Sprague-Dawley rat; settings: 3 mg/kg oral
From the text: (§4) To induce renal hypertension, left renal artery of 4 week-old male Sprague-Dawley rat (from The Korea Research Institute of Chemical Technology) was ligated. The rat was anesthetized with ether and the surgical region on the left abdomen of the rat was shaved, disinfected, and then incised about 1 cm vertically. The renal artery near abdominal aorta was isolated carefully from surrounding tissues and veins, and then ligated completely with a suture (4/0 sterile surgical silk). The muscular strata and skin of the surgical area were sutured with a suture (4/0 sterile surgical silk). The surgical region was disinfected to prevent infection and thereafter, 200 to 250 mg/kg/day of cephazolin sodium was injected intramuscularly for 2 days. 6 to 8 days after the ligation, rats showing systolic pressure of more than 180 mmHg were selected for renal hypertension test. The blood pressure was determined by a tail-cuff method from the tail under unanesthetized condition (Gerold, M. et al., Arzneimittel-Forsch., 18, 1285(1968)).
(§5) Each of the compounds to be tested was administered intravenously or orally into the renal hypertensive rat. The blood pressure of the rat was determined by direct method (Chiu, A. T. et al., J. Pharmacol. Exp. Ther., 250, 867(1989)) using a catheter. The rat was anesthetized with ketamine hydrochloride (125 mg/kg, i.p.) and a catheter was filled with saline and inserted into a carotid artery and […]. The surgical area was sutured with a metal clip. The rat was relaxed at least 3 hours and the catheter in the carotid artery was adapted to an isotec pressure transducer to determine the blood pressure and heart rate with a physiograph (Linearcorder WR3310). After the blood pressure was stabilized, the test compound was administered intravenously or orally. For intravenous administration, the administered volume and washing volume were 1.0 ml/kg and 0.2 ml, respectively. The blood pressure and heart rate were measured in regular intervals up to 24 hours after the administration of the test compound and compared with those measured after the administration of the control compound Losartan.
(§6) The test compound was dissolved in 0.05N KOH for intravenous administration and suspended in Tween 80 for oral administration.
The compound of Example 1 and the Merck compound were tested using the hypertensive rats of test 2(i). 3 mg/kg of each compound was administered orally and blood pressure lowering effect with time was determined to measure the duration of action of the compounds.

[4] = test system: unanesthetized dogs; test: Blood pressure variation with time in unanesthetized dogs; assay type: in vivo, dog; settings: 1.0 mg, oral
Description: as §1, §2, §3

[5] = test system: renal hypertensive rat; test: Blood pressure lowering effect in renal hypertension; assay type: in vivo, Sprague-Dawley rat; settings: Amount 3 mg; intravenous or oral (not specified)
From the text: as §4, §5, §6

CCCCc1nc2cc(-c3cccc[n+]3[O-])c(CO)nc2n1Cc1ccc(-c2ccccc2-c2nn[nH]n2)cc1 [Example 1, 2-Butyl-5-hydroxymethyl-6-(1-oxy-pyridin-2-yl)-3-[2'-(1H-tetrazol-5-yl)-biphenyl-4-ylmethyl]-3H-imidazo[4,5-b]pyridine]
Maximum Blood Pressure Lowering Effect ([1]; 0.3 mg/kg): -17% | Maximum Blood Pressure Lowering Effect ([1]; 1 mg/kg): -25% | Maximum Blood Pressure Lowering Effect ([2]; 0 min): 0.0% | Maximum Blood Pressure Lowering Effect ([2]; 10 min): 2.2% | Maximum Blood Pressure Lowering Effect ([2]; 20 min): -1.1% | Maximum Blood Pressure Lowering Effect ([2]; 30 min): -5.9% | Maximum Blood Pressure Lowering Effect ([2]; 60 min): -11.4% | Maximum Blood Pressure Lowering Effect ([2]; 90 min): -12.9% | Maximum Blood Pressure Lowering Effect ([2]; 120 min): -14.8% | Maximum Blood Pressure Lowering Effect ([2]; 150 min): -16.1% | Maximum Blood Pressure Lowering Effect ([2]; 180 min): -16.7% | Maximum Blood Pressure Lowering Effect ([2]; 210 min): -17.4% | Maximum Blood Pressure Lowering Effect ([2]; 240 min): -18.2% | Maximum Blood Pressure Lowering Effect ([2]; 270 min): -17.0% | Maximum Blood Pressure Lowering Effect ([2]; 300 min): -20.5% | Maximum Blood Pressure Lowering Effect ([2]; 330 min): -20.7% | Maximum Blood Pressure Lowering Effect ([2]; 360 min): -20.4% | Maximum Blood Pressure Lowering Effect ([2]; 390 min): -20.1% | Maximum Blood Pressure Lowering Effect ([2]; 420 min): -20.5% | Maximum Blood Pressure Lowering Effect ([2]; 450 min): -20.5% | Maximum Blood Pressure Lowering Effect ([2]; 480 min): -20.0% | time for which the maximum blood pressure lowering effect lasted after the administration ([2]; Table 6, dogs): up to 8 hours | Maximum Blood Pressure Lowering Effect ([3]; 0 min): 0% | Maximum Blood Pressure Lowering Effect ([3]; 10 min): -11% | Maximum Blood Pressure Lowering Effect ([3]; 20 min): -19% | Maximum Blood Pressure Lowering Effect ([3]; 30 min): -32% | Maximum Blood Pressure Lowering Effect ([3]; 60 min): -48% | Maximum Blood Pressure Lowering Effect ([3]; 90 min): -42% | Maximum Blood Pressure Lowering Effect ([3]; 120 min): -44% | Maximum Blood Pressure Lowering Effect ([3]; 240 min): -58% | Maximum Blood Pressure Lowering Effect ([3]; 360 min): -60% | Maximum Blood Pressure Lowering Effect ([3]; 1320 min): -48% | Maximum Blood Pressure Lowering Effect ([3]; 1440 min): -49% | duration of action compared with the Merck compound ([3]; renal hypertensive rats): far longer duration of action than the Merck compound | Maximum Blood Pressure Lowering Effect ([4]; 0.5 hr): -17.5% | Maximum Blood Pressure Lowering Effect ([4]; 1 hr): -21.4% | Maximum Blood Pressure Lowering Effect ([4]; 2 hr): -23.6% | Maximum Blood Pressure Lowering Effect ([4]; 4 hr): -24.8% | Maximum Blood Pressure Lowering Effect ([4]; 6 hr): -21.7% | Maximum Blood Pressure Lowering Effect ([4]; 8 hr): -13.2% | Maximum Blood Pressure Lowering Effect [5]: -60%
